Experimental data taken from PubChem BioAssay (NCI).
“And” between values parts separate entries of the source, which are not always exact repeats. Equal entries are not always repeated.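 Five compound concentrations were applied to cells in 96-well plates for 48 hours; endpoints were derived by simple linear interpolation of the resulting dose-response curve. At the GI50, growth is halved. Definition used: TGI = concentration required for complete inhibition of growth.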

Columns and labels:
Test in all cases: DTP human tumour cell line panel, 48 h
[1] = test system: SW-620 colon
[2] = test system: SK-OV-3 ovarian
[3] = test system: UO-31 renal
[4] = test system: EKVX NSCLC
[5] = test system: A549 NSCLC
[6] = test system: SF-295 CNS
[7] = test system: MOLT-4 leukemia
[8] = test system: HOP-92 NSCLC
[9] = test system: HL-60(TB) leukemia
[10] = test system: HS 578T breast

Compound	TGI [1]	TGI [2]	TGI [3]	GI50 [4]	TGI [4]	TGI [5]	GI50 [6]	TGI [6]	GI50 [7]	TGI [7]	GI50 [8]	TGI [8]	GI50 [9]	TGI [9]	GI50 [1]	GI50 [2]	GI50 [3]	GI50 [5]	GI50 [10]	TGI [10]
Clc1ccc2c(c1)[nH]c1c2nc2ccccn21	38.3 µM and 45.3 µM	> 100 µM and 63.7 µM	53.7 µM and 37.5 µM	51.9 µM and 21.6 µM	> 100 µM and 63.2 µM	> 100 µM and 74.2 µM	> 100 µM and 15.7 µM	> 100 µM and 35.4 µM	28.4 µM and 5.44 µM	76.8 µM and 42.7 µM	–	–	–	–	–	–	–	–	–	–
N.N.N.N.O=C([O-])CCl.O=C([O-])CCl.[Co+3].[O-][Cl+3]([O-])([O-])[O-]	> 100 µM	> 100 µM	> 100 µM	> 100 µM	> 100 µM	> 100 µM	> 100 µM	> 100 µM	> 100 µM	> 100 µM	86.5 µM	> 100 µM	> 100 µM	> 100 µM	> 100 µM	> 100 µM	> 100 µM	> 100 µM	–	–
NC(N)=N/N=C/c1c(-c2ccsc2)nc2sccn12	43.1 µM	30.3 µM	36.8 µM	15.1 µM	29.4 µM	43.7 µM	11.4 µM	23.6 µM	10.8 µM	39 µM	–	–	16.3 µM	56.4 µM	18.3 µM	14.3 µM	20 µM	21.7 µM	–	–
CCC12CCCN(Cc3ccccc3)C1c1c(n(C)c3ccccc13)CC2 (stereo unspecified)	> 253 µM	> 253 µM	–	–	> 253 µM	> 25.3 µM	–	> 253 µM	–	> 253 µM	–	> 253 µM	–	> 253 µM	–	–	–	–	–	–
OC(CC1SCCCS1)c1ccccc1 (stereo unspecified)	> 100 µM	> 100 µM	> 100 µM	–	> 100 µM	> 100 µM	–	> 100 µM	–	> 100 µM	–	–	–	> 100 µM	–	–	–	–	–	–
CC(C)N(C(=O)C12C3C4C1C1C4(C#N)C3C12C#N)C(C)C (stereo unspecified)	> 100 µM	> 100 µM	> 100 µM	–	> 100 µM	> 100 µM	–	> 100 µM	–	> 100 µM	–	> 100 µM	–	–	–	–	–	–	–	–
COc1ccc2occ(CCC(=O)O)c2c1	> 100 µM	> 100 µM	–	–	> 100 µM	> 100 µM	–	> 100 µM	–	> 100 µM	–	> 100 µM	–	> 100 µM	–	–	–	–	–	–
Cc1cn2c(=O)c3ncn(C4OC(CO)C(O)C4O)c3n(C)c2n1 (stereo unspecified)	> 100 µM	> 100 µM	> 100 µM	–	> 100 µM	> 100 µM	–	> 100 µM	–	> 100 µM	–	> 100 µM	–	> 100 µM	–	–	–	–	–	–
O=C1CCC2(c3ccc(Cl)cc3)Nc3ncccc3N12 (stereo unspecified)	> 100 µM	> 100 µM	> 100 µM	–	> 100 µM	> 100 µM	–	> 100 µM	–	> 100 µM	–	> 100 µM	–	> 100 µM	–	–	–	–	–	–
CCCCCCCCCCCCCC(=O)OCC(C[As](=O)(O)O)OC(=O)CCCCCCCCCCCCC (stereo unspecified)	47 µM	> 100 µM	> 100 µM	–	> 100 µM	> 100 µM	–	–	–	> 100 µM	–	> 100 µM	–	–	–	–	–	–	–	–
CC(C)(C)NNC(=O)CCn1[nH]c(=O)c(Cl)c(Cl)c1=O	> 100 µM	> 100 µM	> 100 µM	–	> 100 µM	> 100 µM	–	> 100 µM	–	> 100 µM	–	–	–	> 100 µM	–	–	–	–	–	–
CC(C)CCC1CC2C(=O)N(c3ccccc3)C(=O)C2c2[nH]c3ccccc3c21 (stereo unspecified)	13.1 µM	32.2 µM	18.9 µM	–	11.6 µM	17.7 µM	–	2.86 µM	–	17.3 µM	–	–	–	5.73 µM	–	–	–	–	–	–
COC(=O)c1ccc2c(c1)nc(NC(=O)c1ccccc1)n2CCCc1ccccc1	> 100 µM	> 100 µM	> 100 µM	–	–	> 100 µM	3.62 µM	> 100 µM	2.78 µM	> 100 µM	6 µM	> 100 µM	4.5 µM	> 100 µM	4.03 µM	7.63 µM	4.07 µM	3.6 µM	30.2 µM	> 100 µM
CC[As](CC)SC[C@H](C)C(=O)N1CCC[C@H]1C(=O)O	0.11 µM	1.05 µM	0.0933 µM	0.162 µM	1.72 µM	–	0.743 µM	2 µM	0.016 µM	0.0586 µM	0.0177 µM	0.0933 µM	0.023 µM	0.0757 µM	0.0344 µM	0.326 µM	0.024 µM	–	–	–
C#CCOc1cccc(-c2ncc3cc(NC(=O)CCl)ccc3n2)c1	3.25 µM	> 100 µM	2.91 µM	–	–	4.43 µM	3.65 µM	17 µM	–	–	–	–	2.28 µM	8.02 µM	1.56 µM	3.58 µM	1.52 µM	2.11 µM	–	–
CC(C)C(CCl)NC(=O)c1cccc(C(=O)N[C@H](CCl)C(C)C)n1 (stereo in doubt)	> 100 µM	> 100 µM	> 100 µM	–	> 100 µM	> 100 µM	–	> 100 µM	–	> 100 µM	–	> 100 µM	–	> 100 µM	–	–	–	–	–	–
CC12C/C(=C\c3ccccc3)C(=O)C3C1CCCC32	> 100 µM	> 100 µM	> 100 µM	–	–	> 100 µM	–	> 100 µM	–	53.1 µM	–	> 100 µM	–	55.6 µM	–	–	–	–	–	–
NC(=S)N/N=C/C(=O)O	> 100 µM	> 100 µM	> 100 µM	–	–	> 100 µM	> 100 µM	> 100 µM	72.5 µM	> 100 µM	–	–	> 100 µM	> 100 µM	> 100 µM	> 100 µM	> 100 µM	96.8 µM	> 100 µM	> 100 µM
Nc1nc(Cl)cc(NCCCCCCCCNc2cc(Cl)nc(N)n2)n1	> 100 µM	> 100 µM	> 100 µM	–	> 100 µM	> 100 µM	–	92.1 µM	–	–	–	85.4 µM	–	48.5 µM	–	–	–	–	–	–
COC(=O)C1c2cc3c(cc2C(OC2OC(C)C(OC)C(C)(OC)C2OC)CC1(C)O)C(=O)c1c(O)cc2c(c1C3=O)OC1OC2(C)C(O)C([N+](C)(C)[O-])C1O (stereo unspecified)	> 23.8 µM	> 64.1 µM	5.7 µM	–	4.59 µM	> 75.8 µM	–	> 42 µM	–	4.97 µM	–	–	–	–	–	–	–	–	–	25.6 µM
CCOC(=O)c1cnc2c(ccc3[nH]n(C)nc32)c1=O	36.8 µM	> 100 µM	> 100 µM	–	> 100 µM	> 100 µM	–	> 100 µM	–	> 100 µM	–	> 100 µM	–	> 100 µM	–	–	–	–	–	–
